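Values below derive from 48-hour exposures of cells grown in 96-well plates, with endpoints linearly interpolated between the two concentrations bracketing the appropriate inhibition level. Here, GI50 denotes the concentration required for 50% inhibition of growth. TGI denotes the concentration required for complete inhibition of growth.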
Key:
Test in all cases: inhibition of tumour cell growth, NCI panel, 48 h
HCT-116 colon = system: HCT-116 colon
SK-MEL-28 melanoma = system: SK-MEL-28 melanoma
UO-31 renal = system: UO-31 renal
NCI-H522 lung = system: NCI-H522 lung
EKVX NSCLC = system: EKVX NSCLC
HL-60(TB) leukemia = system: HL-60(TB) leukemia
KM12 colon = system: KM12 colon
BT-549 breast = system: BT-549 breast
NCI/ADR-RES ovarian = system: NCI/ADR-RES ovarian

Structure (SMILES): Cc1ccc(NC(=O)SCCC(=O)O)cc1NC(=O)SCCC(=O)O
- TGI (HCT-116 colon): > 100 µM
- TGI (SK-MEL-28 melanoma): > 100 µM
- TGI (UO-31 renal): > 100 µM
- TGI (NCI-H522 lung): > 100 µM
- TGI (EKVX NSCLC): > 100 µM
- TGI (HL-60(TB) leukemia): > 100 µM
- TGI (KM12 colon): > 100 µM

Structure (SMILES): O=C1OC(=O)C2C3CCC(O3)C12 (stereo unspecified)
- TGI (HCT-116 colon): > 100 µM
- TGI (SK-MEL-28 melanoma): > 100 µM
- TGI (UO-31 renal): > 100 µM
- TGI (EKVX NSCLC): > 100 µM
- TGI (HL-60(TB) leukemia): > 100 µM
- TGI (KM12 colon): > 100 µM

Structure (SMILES): CN/N=C(\C)CC(=O)Nc1cccc(Cl)c1C
- TGI (HCT-116 colon): > 100 µM
- TGI (SK-MEL-28 melanoma): > 100 µM
- TGI (UO-31 renal): > 100 µM
- TGI (NCI-H522 lung): > 100 µM
- TGI (EKVX NSCLC): > 100 µM
- TGI (HL-60(TB) leukemia): > 100 µM
- TGI (KM12 colon): > 100 µM

Structure (SMILES): COC(=O)C(C(=O)C(=O)Nc1ccccc1OC)c1csc(-n2nc(-c3ccccc3)cc2-c2ccccc2)n1 (stereo unspecified)
- TGI (HCT-116 colon): > 100 µM
- TGI (UO-31 renal): > 100 µM
- TGI (NCI-H522 lung): > 100 µM
- TGI (EKVX NSCLC): > 100 µM
- TGI (HL-60(TB) leukemia): > 100 µM
- TGI (KM12 colon): > 100 µM

Structure (SMILES): COC1OC(C)C(OC(=O)C(C)(C)C)C(C)(O)C1O (stereo unspecified)
- TGI (HCT-116 colon): > 100 µM
- TGI (SK-MEL-28 melanoma): > 100 µM
- TGI (NCI-H522 lung): > 100 µM
- TGI (HL-60(TB) leukemia): > 100 µM
- TGI (KM12 colon): > 100 µM

Structure (SMILES): CC1CC2C3CC(F)C4=CC(=O)C=CC4(C)C3(F)C(O)CC2(C)C1(O)C(=O)CO (stereo unspecified)
- TGI (HCT-116 colon): > 100 µM
- TGI (SK-MEL-28 melanoma): > 100 µM
- TGI (UO-31 renal): > 100 µM
- TGI (NCI-H522 lung): > 100 µM
- TGI (EKVX NSCLC): > 100 µM
- TGI (HL-60(TB) leukemia): > 100 µM
- TGI (KM12 colon): > 100 µM

Structure (SMILES): O=C(NCCNCCO)c1ccc2oc3cc4ccccc4c(=O)n3c2c1
- GI50 (HCT-116 colon): 8.42 µM
- TGI (HCT-116 colon): 19.8 µM
- GI50 (SK-MEL-28 melanoma): 22.8 µM
- TGI (SK-MEL-28 melanoma): > 50 µM
- GI50 (UO-31 renal): 7.11 µM
- TGI (UO-31 renal): 16.8 µM
- GI50 (NCI-H522 lung): 5.62 µM
- TGI (NCI-H522 lung): 14.2 µM
- GI50 (BT-549 breast): 12.3 µM
- TGI (BT-549 breast): 24.1 µM
- GI50 (EKVX NSCLC): 5.63 µM
- TGI (EKVX NSCLC): 19.2 µM
- GI50 (NCI/ADR-RES ovarian): > 50 µM
- TGI (NCI/ADR-RES ovarian): > 50 µM
- GI50 (HL-60(TB) leukemia): 11.7 µM
- TGI (HL-60(TB) leukemia): 34 µM
- GI50 (KM12 colon): 10.5 µM
- TGI (KM12 colon): 40.4 µM

Structure (SMILES): COc1ccc(-c2c(N)[n+]([O-])c3cc(C)c(C)cc3[n+]2[O-])cc1OC
- TGI (SK-MEL-28 melanoma): > 100 µM
- TGI (UO-31 renal): > 100 µM
- TGI (NCI-H522 lung): 37.8 µM
- TGI (EKVX NSCLC): > 100 µM
- TGI (HL-60(TB) leukemia): > 100 µM
- TGI (KM12 colon): > 100 µM

Structure (SMILES): O=C1C=C(Br)C(=O)C(Br)=C1
- TGI (HCT-116 colon): > 100 µM
- TGI (SK-MEL-28 melanoma): > 100 µM
- TGI (UO-31 renal): > 100 µM
- TGI (NCI-H522 lung): > 100 µM
- TGI (EKVX NSCLC): > 100 µM
- TGI (HL-60(TB) leukemia): 54.9 µM
- TGI (KM12 colon): > 100 µM

Structure (SMILES): O=C(O)C1Cc2nc[nH]c2CN1 (stereo unspecified)
- TGI (HCT-116 colon): > 100 µM
- TGI (SK-MEL-28 melanoma): > 100 µM
- TGI (UO-31 renal): > 100 µM
- TGI (NCI-H522 lung): > 100 µM
- TGI (EKVX NSCLC): > 100 µM
- TGI (HL-60(TB) leukemia): > 100 µM
- TGI (KM12 colon): > 100 µM
